Where two headings read alike, the source gives them in different places.
Assays:
YFV 17D strain = assay: microbe, parasite or virus in culture; assay type: cell-based, yellow fever virus
in vitro = details: human
protease for YFV = protease for YFV (Yellow fever virus, UniProt P03314); assay type: biochemical
polymerase for YFV = polymerase for YFV (Yellow fever virus, UniProt P03314); assay type: biochemical
[1] = Yellow fever virus, Huh-7, read-out: EC50 (Neutral Red)
[2] = Yellow fever virus, Huh-7, read-out: EC50 (Visual)

polymerase for YFV, sequence (P03314 2507-3411 limits assumed): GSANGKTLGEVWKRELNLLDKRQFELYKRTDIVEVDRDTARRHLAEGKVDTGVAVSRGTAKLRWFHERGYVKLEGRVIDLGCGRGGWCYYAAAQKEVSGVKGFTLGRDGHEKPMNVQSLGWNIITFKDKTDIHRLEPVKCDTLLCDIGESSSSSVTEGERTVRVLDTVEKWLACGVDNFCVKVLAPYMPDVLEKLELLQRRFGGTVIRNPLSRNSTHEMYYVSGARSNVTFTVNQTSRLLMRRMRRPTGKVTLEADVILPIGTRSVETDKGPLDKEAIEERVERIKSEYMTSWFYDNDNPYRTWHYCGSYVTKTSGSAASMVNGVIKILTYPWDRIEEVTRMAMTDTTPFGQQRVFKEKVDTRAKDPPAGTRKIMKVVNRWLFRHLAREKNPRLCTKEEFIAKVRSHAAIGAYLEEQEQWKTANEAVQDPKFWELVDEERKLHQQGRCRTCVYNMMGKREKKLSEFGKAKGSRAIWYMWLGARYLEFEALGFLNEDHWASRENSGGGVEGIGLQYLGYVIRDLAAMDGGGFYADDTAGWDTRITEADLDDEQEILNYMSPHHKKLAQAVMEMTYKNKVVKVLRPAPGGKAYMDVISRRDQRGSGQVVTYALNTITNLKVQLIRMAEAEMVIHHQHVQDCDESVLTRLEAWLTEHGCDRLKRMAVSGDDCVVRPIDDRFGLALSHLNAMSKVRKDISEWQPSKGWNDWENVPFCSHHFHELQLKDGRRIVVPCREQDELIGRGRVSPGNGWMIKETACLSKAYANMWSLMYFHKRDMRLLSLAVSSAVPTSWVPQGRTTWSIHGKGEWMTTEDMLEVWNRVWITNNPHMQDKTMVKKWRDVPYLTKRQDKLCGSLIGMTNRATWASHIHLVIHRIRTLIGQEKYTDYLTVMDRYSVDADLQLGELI
protease for YFV, sequence (P03314 1485-2107 limits assumed): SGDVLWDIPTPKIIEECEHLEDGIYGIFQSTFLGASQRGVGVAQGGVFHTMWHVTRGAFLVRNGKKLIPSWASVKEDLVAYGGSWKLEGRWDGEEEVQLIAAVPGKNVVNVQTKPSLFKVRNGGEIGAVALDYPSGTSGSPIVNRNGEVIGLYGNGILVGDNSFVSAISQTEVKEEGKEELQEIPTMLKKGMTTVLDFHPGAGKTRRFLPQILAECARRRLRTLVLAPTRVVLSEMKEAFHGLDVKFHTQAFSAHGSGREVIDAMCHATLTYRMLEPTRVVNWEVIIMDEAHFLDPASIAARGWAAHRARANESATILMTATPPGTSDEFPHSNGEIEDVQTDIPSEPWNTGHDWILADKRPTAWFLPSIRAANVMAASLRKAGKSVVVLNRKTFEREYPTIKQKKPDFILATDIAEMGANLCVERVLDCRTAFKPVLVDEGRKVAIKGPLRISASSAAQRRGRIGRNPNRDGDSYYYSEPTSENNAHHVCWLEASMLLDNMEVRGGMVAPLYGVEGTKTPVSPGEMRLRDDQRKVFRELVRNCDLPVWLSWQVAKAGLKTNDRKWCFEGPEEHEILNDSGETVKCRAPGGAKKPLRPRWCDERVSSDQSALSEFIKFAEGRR
protease for YFV, sequence (P03314 1355-1484 partner limits assumed): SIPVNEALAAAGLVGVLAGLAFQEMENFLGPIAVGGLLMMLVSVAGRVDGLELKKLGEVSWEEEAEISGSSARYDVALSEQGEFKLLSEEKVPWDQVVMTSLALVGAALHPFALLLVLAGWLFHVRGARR

Compound | EC50 (YFV 17D strain; [1]) [µM] | EC50 (YFV 17D strain; [2]) [µM] | CC50 (in vitro; CC50 (Neutral Red)) [µM] | CC50 (in vitro; CC50 (Visual)) [µM] | EC50 (YFV 17D strain; read-out: EC50 (Neutral Red)) [µM] | EC50 (YFV 17D strain; read-out: EC50 (Visual)) [µM] | activity against the protease for YFV (protease for YFV) | activity against the polymerase for YFV (polymerase for YFV)
Fc1ccc([C@@H]2CCNC[C@H]2COc2ccc3c(c2)OCO3)cc1 [Paroxetine] | > 3.1 | > 3.2 | 3.1 | 3.2 |  |  |  | 
CCn1nc(C(=O)O)c(=O)c2cc3c(cc21)OCO3 [Cinoxacin] | > 100 | > 100 | > 100 | > 100 |  |  |  | 
Oc1ccc(-c2nc(-c3ccncc3)c(-c3ccc(F)cc3)[nH]2)cc1 [SB202190] | > 100 | > 100 | > 100 | > 100 |  |  |  | 
O=C1[C@H](CC[C@H](O)c2ccc(F)cc2)[C@@H](c2ccc(O)cc2)N1c1ccc(F)cc1 [Ezetimibe] | > 29 | > 32 | 29 | 32 |  |  |  | 
N-{4-cyano-5-[(4-fluorophenyl)amino]-1H-pyrazol-3-yl}naphthalene-2-sulfonamide [Compound 11626003] |  |  |  |  | 3.3 | 3.2 | not active | not active

From publication PMC8574157 (Journal of chemical information and modeling, 2021)
